Patent publication US20100234402A1, “METHODS AND COMPOSITIONS FOR TREATING SPINAL MUSCULAR ATROPHY” (priority 2007, published 2010)
Values belong to the compound of their own block, whether it stands above or below them.

What was measured:
[1] = molecular target: T1, SMN complex (Homo sapiens, UniProt Q16637); test: Magnetic beads snRNP assembly assay in vitro with cell extracts; type: biochemical; details: for IC50: extracts of untreated cells, read-out: IC50, inhibition of the activity of the SMN complex in vitro
T1 construct: HeLa cell extracts (containing the SMN complex and all the components required for Sm core assembly); endogenous in cells; host or cells: HeLa: S3 cytoplasmic or total extracts for in vitro reactions, HeLa PV total extracts for compound-treated cells
T1 sequence (Q16637 2-294 limits assumed): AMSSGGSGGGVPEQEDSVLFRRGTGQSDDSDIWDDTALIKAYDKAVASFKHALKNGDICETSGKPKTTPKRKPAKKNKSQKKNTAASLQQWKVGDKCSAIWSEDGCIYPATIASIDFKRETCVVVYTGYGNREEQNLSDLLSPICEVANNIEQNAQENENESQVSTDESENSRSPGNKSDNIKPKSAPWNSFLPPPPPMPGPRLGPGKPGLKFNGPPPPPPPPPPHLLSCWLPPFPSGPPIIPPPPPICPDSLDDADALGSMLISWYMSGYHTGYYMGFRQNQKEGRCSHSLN
T1 sequence (O14893 whole entry partner): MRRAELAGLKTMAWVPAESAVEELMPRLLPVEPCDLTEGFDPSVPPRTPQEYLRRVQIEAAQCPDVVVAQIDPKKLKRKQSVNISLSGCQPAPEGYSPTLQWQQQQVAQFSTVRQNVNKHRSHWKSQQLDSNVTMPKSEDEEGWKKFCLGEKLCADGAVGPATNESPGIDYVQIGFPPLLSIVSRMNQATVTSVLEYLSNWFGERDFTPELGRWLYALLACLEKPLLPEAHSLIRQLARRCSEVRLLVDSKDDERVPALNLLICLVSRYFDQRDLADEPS
Protocol: (§1) Magnetic beads snRNP assembly assay was carried out in the presence of increasing amounts of H2O2. IC50 was calculated from the dose-response curve. The error bars represent SDs from 3 independent measurements. (B) Effect of menadione on the activity of the SMN complex in vitro. The same experimental procedure was carried out as in (A), except that menadione was used instead. (C) Dose-dependent effect of menadione on the activity of the SMN complex in cells. HeLa cells were treated with menadione at the indicated concentrations or with DMSO control for 1 hour. The activity of the SMN complex in extracts from various treated cells was measured in comparison to DMSO control cell extract (100% activity) by magnetic beads snRNP assembly assay. The error bars represent SDs from 3 independent measurements. (D) Extracts from (C) mixed with sample buffer without (−DTT) or with (+DTT) reducing agent were resolved by SDS-PAGE and analyzed by Western blot of the entire membrane with anti-SMN antibody 62E7. The molecular mass markers in 41 kDa are indicated on the left. “redSMN” indicates monomer SMN migrating at normal molecular mass and “oxSMN” indicates disulfide-crosslinked SMN upon oxidation. (E) β-lapachone and menadione generate ROS in live cells. HeLa cells were incubated with ROS indicator dye H2DCFDA (10 μM) or without dye as a control for 30 minutes, and then treated with the compounds at the indicated concentrations or DMSO as a control. Fluorescence images were acquired 30 minutes after the treatment.
(A) Cell extracts treated with 20 μM β-lapachone, or 20 μM β-lapachone together with 20 μM DTT, or DMSO control were analyzed by non-reducing Western blot. The relative levels of monomer SMN (“redSMN”) were calculated as the percentage of that in DMSO control and shown by the blue bar. Assembly activities of the SMN complex were measured by magnetic beads snRNP assembly assay using the same set of treated extracts and shown by the red bar. The error bar represents SDs from 3 independent experiments. (B) The sulfhydryl modifying reagent iodoacetamide inhibits the activity of the SMN complex. In vitro assembly assays were performed in the presence of various concentrations of iodoacetamide. The activity of the SMN complex in the absence of iodoacetamide was set as 100% activity, and the relative activity at each iodoacetamide concentration was calculated in comparison and graphed. The error bars represent SDs from triplicate samples.
For quantitative in vitro assembly assays on magnetic beads, cytoplasmic extracts were prepared and used for assembly on biotin-labeled snRNAs using the standard reconstitution conditions in 96-well plates. Following the reactions, Y12 antibodies immobilized onto the magnetizable Dynabeads Protein A (Dynal Biotech ASA, Oslo, Norway) in 100 μl of RSB-500 buffer ([…]) containing 2 mg/ml heparin, 0.1% NP-40, and 0.2 U/.μl RNasin Plus RNase inhibitor (Promega, Madison, Wis.) were added to each well. Immunoprecipitations in the 96-well plates were carried out with gentle mixing at 750 rpm in a Thermomixer (Eppendorf, Germany) at 30° C. for 1 hour. The plates were subsequently transferred to a Kingfisher 96 magnetic particle processor (Thermo Labsystems, Vantaa, Finland) for automatic washing of the Dynabeads in each well with wash buffer (RSB-500, 0.1% NP-40) 5 times. After the last wash, beads bound to Y12 immunoprecipitated snRNPs were then resuspended in 120 μl of wash buffer containing 0.08 μg/ml horseradish peroxidase (HRP)-conjugated NeutrAvidin.TM. (Pierce, Rockford, Ill.). Following incubation at 30° C. for 1 hour with gentle mixing, the beads in each well were again washed five times with the Kingfisher 96 magnetic particle processor, and finally resuspended in 150 μl of SuperSignal ELISA Femto Substrate Working Solution (Pierce). […]

[2] = molecular target: T1, SMN complex; test: Magnetic beads snRNP assembly assay on extracts from compound-treated HeLa cells; type: cell-based
Protocol: (§2) (B) Concentration-dependent inhibition of the activity of the SMN complex by b-lapachone in cells. HeLa cells were treated with various concentrations of β-lapachone or with DMSO (control) for 1 hour. The activity of the SMN complex in extracts from treated cells was measured using magnetic beads snRNP assembly assay and compared to that of DMSO-treated control cells (100% activity). IC50 was calculated from the dose-response graph. The error bars represent SDs from 3 independent measurements. […] Assembly reactions were performed using either cell extracts or purified native […] snRNP proteins lacking the SMN complex (Sm proteins). Both samples were adjusted to contain a similar amount of Sm proteins. Magnetic beads snRNP assembly assay were carried out with U4 or control U4DSm snRNA in the presence of either 20 or 100 μM β-lapachone or DMSO control. Sm core assembly on U4 snRNA in the presence of DMSO was considered 100% activity. The error bars represent SDs from 3 independent measurements.
In vitro transcription and labeling of RNAs was carried out using MEGAshortscript T7 transcription kit (Ambion) with the modification that 0.65 μM biotin-16-UTP (Roche) and 2.6 μM UTP were used in the reactions to produce biotinlabeled RNAs (Wan et al., 2005). Cell culture, drug treatment and preparation of cell extracts HeLa S3 cell pellets were purchased from National Cell Culture Center. Cytoplasmic extracts competent for snRNP assembly were prepared as described (Pellizzoni et al., 2002). Total cell extracts were made by resuspending cell pellets in reconstitution buffer ([…], 0.2 mM EDTA, 5% glycerol) containing 50 µg/ml digitonin (Calbiochem) and 1× Complete EDTA-free Protease Inhibitor Cocktail (Roche), followed by sonication. Nonidet P-40 (NP-40) was added to a final concentration of 0.01%, followed by centrifugation at 10,000 rpm for 15 minutes at 4° C. Glycerol was then added to the supernatant at a final concentration of 5%. For various drug treatments, two 10 cm plates of HeLa PV cells were treated with each drug at the indicated concentrations and times. Cells were harvested (˜90% confluent) and total cell extracts prepared using the aforementioned procedures. Protein concentrations of various extracts were determined using the Bradford protein assay (BioRad). All of the extracts for the same experiment were adjusted to the same final protein concentration
For quantitative in vitro assembly assays on magnetic beads, cytoplasmic extracts were prepared and used for assembly on biotin-labeled snRNAs using the standard reconstitution conditions in 96-well plates. […] The plates were transferred to a Wallac Victor2 multi-label plate reader (Perkin-Elmer, Wellesley, Mass.) for luminescence measurements at 495 nm. […]

[3] = test system: T2, Sm proteins; test: Sm core assembly from purified native snRNP proteins lacking the SMN complex; type: biochemical, human; details: U4 snRNA, 20 or 100 μM
T2 construct: Native, RNA-free total snRNP proteins (TPs) were prepared from HeLa S3 cells; endogenous in cells; host or cells: HeLa S3 cells (pellets from National Cell Culture Center); proteins purified in house by the method of Sumpter et al., 1992
Protocol: as §2
Native, RNA-free total snRNP proteins (TPs) were prepared from HeLa S3 cells (National Cell Culture Center) as described previously (Sumpter et al., 1992). […] The other half of the samples were immunoprecipitated with anti-Sm monoclonal antibody (Y12), and the immunoprecipitated RNAs were isolated and analyzed by electrophoresis on […] urea/8% polyacrylamide gels. […]

[4] = test system: transfected luciferase reporter; test: Transcription and translation of a transfected luciferase reporter in treated cells; type: cell-based
[5] = test system: SMN protein; test: Quantitative non-reducing Western blot of SMN in extracts of treated HeLa cells; type: cell-based, human; details: 5 μM for 3 hours, prepared without DTT
Protocol: (B) HeLa total cell extracts prepared from cells treated for 3 hours with 5 μM β-lapachone or DMSO control were resolved by SDS-PAGE and analyzed by quantitative Western blotting, using JBP1 and Magoh as loading controls. The extracts were prepared and mixed with sample buffer without reducing agent. The membrane was cut into strips for the probing of each protein at the corresponding molecular mass.
For quantitative Western blot, cell extracts containing 20 g of total proteins were mixed with NuPAGE LDS sample buffer (Invitrogen) with or without reducing agent (Invitrogen), boiled for 5 minutes, and then separated on NuPAGE 4-12% Bis-Tris gels (Invitrogen) and transferred to nitrocellulose membranes. […] Mouse monoclonal antibodies, anti-SMN (62E7), anti-Gemin3 (12H12), anti-Gemin4 (17D10), anti-Gemin5 (10G11), anti-JBP1 (6G8), anti-Magoh (18G12) and anti-Sm (Y12), were used as described previously (Battle et al., 2006b; Lerner et al., 1981; Wan et al., 2005). The IRDye800 anti-mouse IgG secondary antibody (Rockland) was used at 1:5000.
To test this, extracts from b-lapachone-treated cells (at 5 μM for 3 hours) or DMSO-treated control cells were prepared in gel electrophoresis sample buffer without the reducing agent dithiothreitol (DTT) to preserve potential disulfides, resolved by SDS-PAGE, and analyzed by quantitative Western blots. […]

[6] = test system: SMN; test: Indirect immunofluorescence of SMN (2B1) and snRNPs (Y12) in HeLa PV cells; type: cell-based, human; details: 5 μM for 3 hours vs DMSO control
[7] = test system: ROS in HeLa cells; test: ROS detection in live HeLa cells with H2DCFDA dye; type: cell-based, human; details: for ROS generation in live cells (H2DCFDA fluorescence): 10 μM H2DCFDA, images 30 minutes after treatment
Protocol: as §1
Additional direct evidence for the ROS-generating activity of the compounds in live cells was obtained by staining cells with 2′,7′-dichlorodihydrofluorescein diacetate (H2DCFDA), a nonfluorescent dye that becomes fluorescent upon exposure to ROS. […] A significant level of ROS was apparent at 0.5 μM β-lapachone and increased proportionally with increasing b-lapachone concentrations.

Structure (SMILES): OO [H2O2, hydrogen peroxide]
IC50, inhibition of the activity of the SMN complex in vitro ([1]; in vitro, value in words): low millimolar range

Structure (SMILES): O[C@H](CS)[C@H](O)CS (racemic) [DTT, dithiothreitol]
prevention of the inhibitory effect of b-lapachone on SMN complex activity ([1]; 20 μM b-lapachone with 20 μM DTT): completely neutralized

Structure (SMILES): CC(=O)N[C@@H](CS)C(=O)O [N-acetyl-L-cysteine]
prevention of the inhibition of b-lapachone, menadione and H2O2 ([1]; in vitro assembly reactions): completely prevented

Structure (SMILES): NC(=O)CI [iodoacetamide]
inhibition of the SMN complex / assembly in cell extracts (in words) ([1]; in vitro): inhibits

Structure (SMILES): CC1(C)CCC2=C(O1)C(=O)c1ccccc1C2=O [α-lapachone]
inhibition of the SMN complex / assembly in cell extracts (in words) ([1]; in vitro): does not inhibit

Structure (SMILES): O=C1C(=O)c2ccccc2-c2ccccc21 [9,10-phenanthrenequinone]
inhibition of the SMN complex / assembly in cell extracts (in words) ([1]; in vitro): strongly inhibit

Now from value to compound, other results behind:

IC50 ([2]; HeLa cells treated for 1 hour, read-out: IC50, inhibition of the activity of the SMN complex in treated cells): 450 nM
inhibition of snRNP assembly ([2]; within 30 minutes of treatment): > 80%
IC50 [1]: ~30 µM
inhibition of the SMN complex / assembly in cell extracts (in words) ([1]; in vitro): inhibited assembly in the cell extracts
effect on Sm core formation from the purified snRNP proteins [3]: no effect
Structure (SMILES): CC1(C)CCC2=C(O1)c1ccccc1C(=O)C2=O [β-lapachone, 3,4-dihydro-2,2-dimethyl-2H-naphthol[1,2-b]pyran-5,6-dione]
inhibition of snRNP assembly activity ([2]; extracts from cells treated for 6 hours with subtoxic concentration): about 90%
inhibition of transcription and translation of a transfected luciferase reporter [4]: did not significantly inhibit
decrease of intensity of the SMN band (monomer) compared to DMSO controls [5]: ~60%
SMN signal intensity or localization [6]: no detectable difference
ROS generation in live cells (H2DCFDA fluorescence) [7]: Dose-dependent fluorescence
concentration at which a significant level of ROS was apparent ([7]; HeLa cells, H2DCFDA): 0.5 µM

inhibition of the SMN complex / assembly in cell extracts (in words) ([1]; in vitro): strongly inhibit
Structure (SMILES): O=C1C(=O)C(Cl)=C(Cl)C(Cl)=C1Cl [tetrachloro-1,2-benzoquinone]

inhibition of SMN complex activity in cells ([2]; HeLa cells treated for 1 hour): dose-dependent inhibition
IC50 [1]: 25 µM
Structure (SMILES): CC1=CC(=O)c2ccccc2C1=O [menadione, 2-methyl-1,4-napthoquinone]
ROS generation in live cells (H2DCFDA fluorescence) [7]: Dose-dependent fluorescence
